According to patent publication US12606554B2, “Compounds and pharmaceutical compositions thereof for the treatment of diseases” (ONCO3R Therapeutics BV, priority 2019, dated 2026):
pEC50, pIC50: −log10 of the molar value.

Tests used:
SIK2 = target: T1, SIK2 (Homo sapiens, UniProt Q9H0K1); assay: ADP-Glo kinase assay, SIK2; assay type: biochemical; conditions: AMARA peptide 45 μM, 5 μM ATP, 120 min
T1 construct: purchased ThermoFisher Scientific PV4792
From the text: (§1) The ADP-Glo™ kinase assay is a luminescent technology assay which measures the ADP formed from a kinase reaction. In this specific study, the kinase reactions consisted of the phosphorylation of the AMARA peptide substrate (SignalChem, Cat #A11-58) by SIK1 (Carma Biosciences, Cat #02-131), SIK2 (ThermoFisher Scientific, Cat #PV4792) or SIK3 (SignalChem, Cat #S12-11G-100). In a second step the kinase reactions are terminated and all the remaining ATP is depleted. In a final step the ADP is converted into ATP and this newly synthesized ATP is measured by using a luciferase/luciferin reaction. The generated light is measured using an Envision plate reader, wherein the luminescent signal obtained positively correlates with the kinase activity.
(§2) The test compounds are prepared as a serial dilution of 10 point dose responses with ⅕ dilution steps in 100% DMSO starting from 2 mM highest concentration, diluted 1/20 in water and […] is transferred to the assay plates (PerkinElmer Inc., Cat #6007290).
(§3) 1% DMSO and 10 μM staurosporine final concentrations are used as negative and positive controls.
(§4) 2 μL enzyme-substrate mixture is added to the assay plates.
(§5) The reaction is started by adding 2 μL diluted ATP on the assay plates. Plates are centrifuged for a few seconds at 1000 rpm and gently shaken for 2 min followed by an incubation at RT for 120 min.
(§6) The reactions are stopped and the unconsumed ATP is depleted by adding 5 μL ADP-Glo Reagent (Promega, Cat #V9121B) to the reaction. The plates are centrifuged for a few seconds at 1000 rpm and incubated at RT for […] (ATP depletion).
(§7) The ADP is converted to ATP and luciferase and luciferin is introduced to detect ATP by adding 10 μL Kinase Detection Reagent (Promega, Cat #V913B+V914r) to the reaction. The plates are centrifuged for a few seconds at 1000 rpm and incubated at RT for 30 min (ADP detection).
(§8) Luminescence is measured on an Envision plate reader (PerkinElmer Inc.).
(§9) Raw data are generated following the read-out performed on the TopCount, plotted to generate dose response curves to calculate percentage inhibition (PIN) and average IC50 for each SIK homologue which are reported in the table below.

SIK1 = target: T2, SIK1 (Homo sapiens, UniProt P57059); assay: ADP-Glo kinase assay, SIK1; assay type: biochemical; conditions: AMARA peptide 45 μM, 5 μM ATP, 120 min, read-out: SIM1 IC50
T2 construct: purchased Carna Biosciences 02-131
From the text: as §1, §2, §3, §4, §5, §6, §7, §8, §9

SIK3 = target: T3, SIK3 (Homo sapiens, UniProt Q9Y2K2); assay: ADP-Glo kinase assay, SIK3; assay type: biochemical; conditions: AMARA peptide 45 μM, 5 μM ATP, 120 min
T3 construct: purchased SignalChem S12-11G-100
From the text: as §1, §2, §3, §4, §5, §6, §7, §8, §9

[1] = tested on: LPS-induced TNFα in monocytes; assay: Monocytes assay: LPS-triggered TNFα (ELISA); assay type: cell-based; conditions: Homo sapiens, Monocyte, LPS 200 ng/mL, supernatant after 4 h
Procedure: SIK inhibition inhibits TNFα and increases IL-10 release in LPS triggered monocyte-derived macrophages (MdM) and dendritic cells (MdDCs) (Clark et al. 2012; Sundberg et al. 2014; Ozanne et al. 2015). This assay evaluates illustrative compounds of the invention for their inhibition of LPS-induced TNFα and LPS triggered IL-10 secretion in monocytes.
PBMCs are isolated from human blood samples (buffycoats). The buffy coat is aseptically transferred into a 50 mL Falcon tube, and diluted ½ in PBS. Falcon tubes are filled with 20 mL Lymphoprep™, on top of which 25 mL of the buffy coat is carefully added, tubes are centrifuged for 35 min at 400 g in temperature controlled centrifuge, without brake, at 25° C. PBMCs are aspirated from the white interface layer between sample and Lymphoprep™. PBMCs are washed five times in PBS. Cells are resuspended in RPMI 1640 complete medium supplemented with 10% FBS, 1% P/S, and cell density is determined using a hematologic analyzer (Sysmex XS-500i).
PBMCs are centrifuged at 300×g for 10 min and resuspended at a density of 1.0*10^7 cells/80 μL Miltenyi buffer (PBS, pH 7.4, 1% FBS, 2 mM EDTA).
Starting from this point of the protocol all steps are performed on ice. 20 μL of CD14+ micro-beads are added per 1.0*10^7 cells, the tube is mixed and incubated for 15 min in the fridge at 4° C. Cell suspension volume is adjusted to total volume of 100 mL using Miltenyi buffer, mixed gently and subsequently centrifuged for 10 min at 300×g. Supernatant is discarded and cell pellet is resuspended in 12 mL of Miltenyi buffer.
Four LS columns are placed in the MACS Separator (magnet) from Miltenyi Biotec, and are prewet by rinsing with 3 mL of MACS buffer per column. Three mL of cell suspension is added onto the column (max 1*10^8 of labelled cells/column), and columns are subsequently washed 3 times with 3 mL of Miltenyi buffer.
The columns are removed from the magnets, and 5 mL of Miltenyi buffer are added to the column to flush out the CD14+ fraction by pushing the plunger into the column. The flushed fractions are collected in a fresh 50 mL Falcon and volume is adjusted to 30 mL using Miltenyi buffer, cells are centrifuged for 10 min at 300×g. The obtained cell pellet is resuspended in 10 mL RPMI w/o FBS, and cell density is determined using a hematologic analyser (Sysmex XS-500i). 100 000 cells are seeded in 80 μL per well of a 96-well plate in RPMI 1640 medium supplemented with 10% FBS, 1% P/S.
A compound dilution plate is made in 100% DMSO by 3-fold dilution of 10 mM stock solution. An intermediate dilution plate (10× final concentration) is made by diluting the compound dilution plate 50-fold in RPMI medium.
10 μL of the 10× final concentration compound is added to the cells and incubated for 1 h at 37° C. before addition of trigger. […]

[2] = mice; Wein et al. 2016; cited from earlier work

T3 sequence (Q9Y2K2 whole entry): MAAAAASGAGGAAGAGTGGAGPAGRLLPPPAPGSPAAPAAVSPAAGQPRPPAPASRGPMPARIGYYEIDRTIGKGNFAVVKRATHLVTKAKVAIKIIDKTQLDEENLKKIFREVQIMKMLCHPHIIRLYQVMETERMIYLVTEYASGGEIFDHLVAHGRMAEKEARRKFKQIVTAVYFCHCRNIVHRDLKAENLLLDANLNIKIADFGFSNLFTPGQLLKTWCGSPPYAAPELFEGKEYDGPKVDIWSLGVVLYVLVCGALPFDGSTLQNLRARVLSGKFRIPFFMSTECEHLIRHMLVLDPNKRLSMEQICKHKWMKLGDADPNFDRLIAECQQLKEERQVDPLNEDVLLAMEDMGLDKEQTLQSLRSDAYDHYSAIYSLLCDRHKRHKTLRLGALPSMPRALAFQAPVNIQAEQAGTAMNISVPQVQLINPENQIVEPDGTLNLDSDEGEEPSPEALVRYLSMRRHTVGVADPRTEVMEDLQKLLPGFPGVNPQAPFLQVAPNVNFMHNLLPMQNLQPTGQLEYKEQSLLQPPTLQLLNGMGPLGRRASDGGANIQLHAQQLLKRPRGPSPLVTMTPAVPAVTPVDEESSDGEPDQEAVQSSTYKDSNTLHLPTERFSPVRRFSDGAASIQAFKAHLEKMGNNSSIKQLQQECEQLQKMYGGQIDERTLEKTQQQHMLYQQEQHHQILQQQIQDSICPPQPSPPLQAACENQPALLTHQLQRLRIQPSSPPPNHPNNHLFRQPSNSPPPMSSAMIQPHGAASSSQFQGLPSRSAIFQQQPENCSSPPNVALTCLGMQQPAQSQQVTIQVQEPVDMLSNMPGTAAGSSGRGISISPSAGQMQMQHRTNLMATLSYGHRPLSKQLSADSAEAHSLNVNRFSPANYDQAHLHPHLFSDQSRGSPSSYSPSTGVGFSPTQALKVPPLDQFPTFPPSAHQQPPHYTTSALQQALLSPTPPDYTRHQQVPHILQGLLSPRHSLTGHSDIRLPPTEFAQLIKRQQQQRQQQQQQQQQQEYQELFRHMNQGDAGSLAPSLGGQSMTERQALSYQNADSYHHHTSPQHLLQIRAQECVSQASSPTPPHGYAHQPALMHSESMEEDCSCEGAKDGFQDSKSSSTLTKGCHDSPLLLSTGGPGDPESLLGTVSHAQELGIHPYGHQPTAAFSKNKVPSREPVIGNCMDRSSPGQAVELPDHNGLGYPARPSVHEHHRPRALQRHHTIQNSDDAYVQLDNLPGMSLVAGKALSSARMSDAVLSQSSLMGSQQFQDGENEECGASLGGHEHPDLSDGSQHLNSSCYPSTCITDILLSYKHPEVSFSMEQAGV
T2 sequence (P57059 whole entry): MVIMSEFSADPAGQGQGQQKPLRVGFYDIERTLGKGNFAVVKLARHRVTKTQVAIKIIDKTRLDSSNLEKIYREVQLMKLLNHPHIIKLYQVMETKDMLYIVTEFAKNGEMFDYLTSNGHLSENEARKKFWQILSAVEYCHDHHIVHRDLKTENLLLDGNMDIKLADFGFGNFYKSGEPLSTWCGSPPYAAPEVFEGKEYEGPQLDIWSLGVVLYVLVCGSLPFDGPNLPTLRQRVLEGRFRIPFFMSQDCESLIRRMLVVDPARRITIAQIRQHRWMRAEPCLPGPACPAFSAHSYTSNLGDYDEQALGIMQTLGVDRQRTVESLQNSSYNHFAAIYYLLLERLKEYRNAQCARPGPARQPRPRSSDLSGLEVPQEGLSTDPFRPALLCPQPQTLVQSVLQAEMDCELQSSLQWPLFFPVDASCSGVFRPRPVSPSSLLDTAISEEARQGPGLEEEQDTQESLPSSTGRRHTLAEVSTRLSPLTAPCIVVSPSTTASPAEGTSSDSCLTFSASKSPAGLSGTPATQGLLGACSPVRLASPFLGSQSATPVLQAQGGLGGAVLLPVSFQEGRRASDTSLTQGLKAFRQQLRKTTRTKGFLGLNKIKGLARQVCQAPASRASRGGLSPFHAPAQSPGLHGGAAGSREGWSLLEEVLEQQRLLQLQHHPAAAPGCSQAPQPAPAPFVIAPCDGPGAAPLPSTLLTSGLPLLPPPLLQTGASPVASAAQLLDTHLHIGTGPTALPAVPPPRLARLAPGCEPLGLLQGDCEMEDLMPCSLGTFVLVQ
T1 sequence (Q9H0K1 whole entry): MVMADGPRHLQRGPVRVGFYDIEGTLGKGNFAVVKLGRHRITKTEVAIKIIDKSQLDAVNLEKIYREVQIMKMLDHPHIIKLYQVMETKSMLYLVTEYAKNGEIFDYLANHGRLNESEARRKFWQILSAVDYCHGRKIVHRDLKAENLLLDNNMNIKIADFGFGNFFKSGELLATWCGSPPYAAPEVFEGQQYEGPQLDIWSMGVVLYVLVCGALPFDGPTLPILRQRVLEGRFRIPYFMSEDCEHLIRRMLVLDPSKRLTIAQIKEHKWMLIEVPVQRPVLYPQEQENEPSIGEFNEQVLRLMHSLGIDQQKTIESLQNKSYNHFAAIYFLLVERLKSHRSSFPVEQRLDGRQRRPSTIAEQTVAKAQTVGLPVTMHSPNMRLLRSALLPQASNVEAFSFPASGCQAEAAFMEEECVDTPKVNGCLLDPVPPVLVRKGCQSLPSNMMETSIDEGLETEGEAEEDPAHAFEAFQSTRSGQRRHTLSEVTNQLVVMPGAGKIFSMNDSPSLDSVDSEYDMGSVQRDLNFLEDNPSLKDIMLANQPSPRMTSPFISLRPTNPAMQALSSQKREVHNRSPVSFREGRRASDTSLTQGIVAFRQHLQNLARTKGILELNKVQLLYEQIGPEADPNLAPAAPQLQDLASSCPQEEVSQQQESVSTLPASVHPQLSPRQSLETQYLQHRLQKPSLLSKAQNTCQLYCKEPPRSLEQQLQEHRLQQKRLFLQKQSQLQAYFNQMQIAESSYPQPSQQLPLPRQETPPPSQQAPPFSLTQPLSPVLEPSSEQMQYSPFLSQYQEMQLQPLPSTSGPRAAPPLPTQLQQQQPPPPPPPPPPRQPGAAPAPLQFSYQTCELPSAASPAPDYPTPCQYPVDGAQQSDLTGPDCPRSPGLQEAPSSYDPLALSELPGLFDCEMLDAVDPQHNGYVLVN

| pIC50 (SIK2) | pIC50 (SIK1) | pIC50 (SIK3) | pEC50 [1] | SMILES | bone formation and bone mass [2] |
| --- | --- | --- | --- | --- | --- |
| 7.00 to 8.00 | < 6.30 | 7.00 to 8.00 | – | COc1cc(-c2cnn3cc(OCCN4CCOCC4)cnc23)cc2c1C(=O)N(CC(F)(F)F)CC2 [Cpd 4, 8-methoxy-6-[6-(2-morpholinoethoxy)pyrazolo[1,5-a]pyrimidin-3-yl]-2-(2,2,2-trifluoroethyl)-3,4-dihydroisoquinolin-1-one] | – |
| 7.00 to 8.00 | < 6.30 | 7.00 to 8.00 | – | COc1cc(-c2cnc3cc(OCCN4CCOCC4)cnn23)cc2c1C(=O)N(CC(F)(F)F)CC2 [Cpd 5, 8-methoxy-6-[7-(2-morpholinoethoxy)imidazo[1,2-b]pyridazin-3-yl]-2-(2,2,2-trifluoroethyl)-3,4-dihydroisoquinolin-1-one] | – |
| 7.00 to 8.00 | < 6.30 | 7.00 to 8.00 | 6.00 to 7.00 | COc1cc(-c2cnn3cc(OC(C)(C)CN4CC5(COC5)C4)ccc23)cc(OC(F)F)c1C(=O)N[C@@H]1C[C@@H]1F [Cpd 6, 2-(difluoromethoxy)-4-[6-[1,1-dimethyl-2-(2-oxa-6-azaspiro[3.3]heptan-6-yl)ethoxy]pyrazolo[1,5-a]pyridin-3-yl]-N-[(2S)-2-fluorocyclopropyl]-6-methoxy-benzamide] | – |
| – | – | – | – | COc1ccc(N2C(=O)N(c3c(C)cccc3Cl)Cc3cnc(Nc4ccc(C5CCN(C)CC5)cc4OC)nc32)nc1 [YKL-05-099] | increased bone formation and bone mass |
